In patent US8022043B2, “Ceramide derivatives as modulators of immunity and autoimmunity” (Albert Einstein College of Medicine of Yeshiva University, priority 2004, dated 2011):

What was measured:
NK T hybridoma DN32.D3 = assay: Murine NK T cell hybridoma stimulation assay (IL-2 release), RMA-S.mCD1d as APC; assay type: cell-based, mouse; settings: presented by RMA-S/CD1d cells
Procedure: FIG. 5. […] NK T hybridoma DN32.D3 was cultured with CD1d-transfected RMA-S cells in microtiter plate wells. Each ceramide-like glycolipid was titrated over a concentration range from 0.5-500 nM, and supernatants were harvested after 24 hours for measurement of IL-2 release. Units of activity were calculated as the reciprocal of the concentration of ceramide-like glycolipid required to give a half maximal release of IL-2, and all values were normalized to the activity of KRN7000 (defined as 1 Unit). The dotted line indicates the level of activity for KRN7000. The structures of two ceramide-like glycolipids with markedly elevated activity relative to KRN7000 are shown.
The ability of the compounds to activate NK T cell hybridomas in the presence of various types of cells expressing CD1d reported in FIG. 5A was determined using a murine NK T cell hybridoma stimulation assay. […] Relative potencies of the ceramide-like glycolipids were calculated from the reciprocal effective concentrations at half-maximal response (1/EC50), and expressed as units by normalization to the observed potency for KRN7000.
IL-2 production by NK T hybridoma DN32D3 in response to eight selected ceramide-like glycolipids, was determined using three different cell types as antigen presenting cells. […]

NOD mice = assay: Prevention of type 1 diabetes in NOD mice; assay type: in vivo; settings: i.p. once per week, 200 micrograms/kg; comparator DB01-1 (indicated as KRN7000)
Procedure: Cohorts of 6-8 female NOD mice were treated with placebo (vehicle) or DB01-1 (indicated as KRN7000), DB03-4 or DB03-5 injections once weekly beginning at 4-5 weeks of age. Treatment was discontinued after 5 injections (DB03-4) or 7 injections (DB03-5). Top graphs show incidence of glycosuria, and bottom graphs show survival in each cohort.
Given the widely held belief that selective augmentation of IL-4 production can be protective or therapeutic in the setting of many autoimmune diseases, we have initiated studies to examine the efficacy of compounds such as DB03-4 and DB03-5 in diabetes prone NOD mice. […] The results reported in FIG. 10 were obtained by treating three groups, each consisting of 9-12 female NOD mice, starting from age 5 weeks with a ceramide-like glycolipid. The indicated ceramide-like glycolipids (DB03-4, DB03-5, or KRN7000) were injected i.p. once per week in a dose of 200 micrograms/kg. Treatment was discontinued at 11 weeks of age, and the mice were monitored weekly for glucosuria (top) and death (bottom).
For experiments involving in vivo treatment of mice with the ceramide-like glycolipids, the ceramide-like glycolipids were administered by i.p. or i.v. injection in 0.2 ml PBS+0.025% Tween-20, or in vehicle alone. A typical dose is about 4-5 nmoles per animal per injection. […]

iNKT cells = assay: In vitro cytokine modulation, murine cell assay system; assay type: cell-based
human NKT cell clones = assay: Human in vitro NKT cell assay system; assay type: cell-based; settings: proliferative responses and cytokine secretion
Text: For example, DB03-4 and DB03-5 are active in stimulation of human NKT cell clones in vitro, and elicits proliferative responses and cytokine secretion when evaluated using culture systems previously established in the literature (See, e.g., Spada F M, Sugita M, Watts G F M, Koezuka Y, and Porcelli S A. Low expression but potent antigen presenting function of CD1d on monocyte lineage cells, Eur. J. Immunol., 30:3468-3477 (2000), and Spada F M, Koezuka Y, Porcelli S A, CD1d-restricted recognition of synthetic glycolipid antigens by human NK T cells. J Exp Med; 188:1529-1534 (1998), see also, Lee P T et al., J Clin Invest., 2002 September; 110(6):793-800. […] Acad. Sci. (USA), 102:3383-8 (2005)).

[1] = system: T cell antigen receptors of human NKT cells; assay: Glycolipid human CD1d tetramer binding; settings: normal blood specimens
NK T cells = assay: NK T cell activation screens (Example, FIG. 5 and Table 1); assay type: cell-based; settings: see Example
Text: Using these methods, we produced more than 60 novel amino substituted analogues of KRN7000. These were screened in a functional assay that assessed the ability of the compounds to activate NK T cell hybridomas in the presence of various types of cells expressing CD1d, or in the presence of recombinant CD1d proteins bound to the tissue culture plate surface (FIG. 5).

Compound: CCCCC/C=C\C/C=C\CCCCCCCCCC(=O)N[C@@H](COC1OC(CO)C(O)C(O)C1O)[C@H](O)[C@H](O)CCCCCCCCCCCCCC (stereo partly drawn) [DB03-4]
- potency relative to KRN7000 (IL-2 production) (NK T hybridoma DN32.D3): extremely enhanced potency
- prevention of diabetes in NOD mice compared with KRN7000 (NOD mice): superior to KRN7000
- cytokine bias (iNKT cells): bias towards inducing Type 2 cytokines
- IL-4 induction (iNKT cells; in vitro): strong inducers of IL-4
- IFNγ induction (iNKT cells; in vitro, DB03-3: in some murine strains): blunted IFNγ
- in vitro activity at modulating cytokines (iNKT cells; murine cell assay system): show in vitro activity
- stimulation of human NKT cell clones (human NKT cell clones): active
- binding of glycolipid human CD1d tetramers to human NKT cells [1]: bind strongly
- effectiveness of compound (NK T cells): Particularly effective
